In ChEMBL document CHEMBL1142878, “Synthesis and cytotoxicity evaluation of substituted pyridazino[4,5-b]phenazine-5,12-diones and tri/tetra-azabenzofluorene-5,6-diones” (Eur J Med Chem, 2007):

Assays:
Assay type in all cases: functional, cell-based
XF498 = experiment: Anticancer activity against human XF498 cells after 48 hrs by SRB assay; conditions: XF498, 48 h
SK-MEL-2 = experiment: Anticancer activity against human SK-MEL-2 cells after 48 hrs by SRB assay; conditions: SK-MEL-2, 48 h
A549 = experiment: Anticancer activity against human A549 cells after 48 hrs by SRB assay; conditions: A549, 48 h
SK-OV-3 = experiment: Anticancer activity against human SKOV3 cells after 48 hrs by SRB assay; conditions: SK-OV-3, 48 h
HCT-15 = experiment: Anticancer activity against human HCT15 cells after 48 hrs by SRB assay; conditions: HCT-15, 48 h

| Compound | IC50 (XF498) [nM] | IC50 (SK-MEL-2) [nM] | IC50 (A549) [nM] | IC50 (SK-OV-3) [nM] | IC50 (HCT-15) [nM] |
| --- | --- | --- | --- | --- | --- |
| O=C1c2cnncc2C(=O)c2nc3cc(C(F)(F)F)ccc3nc21 | 116 | 116 | 174 | 79 | 195 |
| O=C1C(=O)c2c(nc3cnccn23)-c2ncccc21 | 92 | 114 | 98 | 18 | 123 |
| Cc1cccc2nc3c(n12)C(=O)C(=O)c1cccnc1-3 | 2570 | 1360 | 1280 | 1650 | 1450 |
| O=C1C(=O)c2c(nc3c(C(=O)O)cccn23)-c2ncccc21 | 95 | 125 | 117 | 56 | 122 |
| COc1cccc2nc3c(nc12)C(=O)c1cnncc1C3=O | 65 | 29 | 109 | 39 | 93 |
| CCc1cccc2nc3c(nc12)C(=O)c1cnncc1C3=O | 13 | 19 | 10 | 34 | 12 |
| O=C1C(=O)c2c(nc3ncccn23)-c2ncccc21 | 137 | 139 | 160 | 27 | 301 |
| Cc1cnc2nc3c(n2c1)C(=O)C(=O)c1cccnc1-3 | 382 | 286 | 745 | 183 | 978 |
| O=C1c2cnncc2C(=O)c2nc3cc(OC(F)(F)F)ccc3nc21 | 98 | 85 |  | 63 | 74 |
| CN(C)c1ccc2nc3c(nc2c1)C(=O)c1cnncc1C3=O | 70 | 88 | 51 | 31 | 24 |
| Cc1ccc2nc3c(nc2c1C)C(=O)c1cnncc1C3=O | 13 | 12 | 13 | 19 | 10 |
| COc1cc(OC)c2nc3c(nc2c1)C(=O)c1cnncc1C3=O | 33 | 38 | 44 | 70 | 26 |
| O=C1c2cnncc2C(=O)c2nc3cc4c(cc3nc21)OCO4 | 118 | 151 | 138 | 41 | 116 |
| CCOc1cccc2nc3c(nc12)C(=O)c1cnncc1C3=O | 29 | 15 | 53 | 32 | 30 |
| Cc1cccn2c3c(nc12)-c1ncccc1C(=O)C3=O | 86 | 122 | 112 | 51 | 123 |
| Cc1cccc2nc3c(nc12)C(=O)c1cnncc1C3=O | 21 | 34 | 29 | 70 | 18 |
| O=C1C(=O)c2c(nc3ccc(Cl)cn23)-c2ncccc21 | 124 | 141 | 126 | 46 | 134 |
| COc1cccc2c1C(=O)c1c(O)c3c(c(O)c1C2=O)C[C@@](O)(C(=O)CO)C[C@@H]3O[C@H]1C[C@H](N)[C@H](O)[C@H](C)O1 [DOXORUBICIN] | 112 | 97 | 118 | 181 | 225 |
